The text below walks through data of patent publication US11034725B2, “Compositions and methods for treating cardiovascular disease” (Genentech, Inc., priority 2016, dated 2021).

The term Kd denotes the constant that tells how readily two partners part at equilibrium.

The target of one test is T1, PCSK9Δhelix (Homo sapiens, UniProt Q8NBP7).
T1 construct: Human PCSK9 construct M1-Q692 with an engineered TEV site (residue deletion Y166, R167); made in house; host or cells: CHO
Description: PCSK9Δhelix/Ab20 TR-FRET binding assay. Background: TR-FRET usually uses a lanthanide donor and a delayed reading to cut background.

Test [1] deals with T2, PCSK9 (Homo sapiens, UniProt Q8NBP7). Briefly: PCSK9/EGF(A) TR-FRET binding assay.
T2 sequence (Q8NBP7 153-692): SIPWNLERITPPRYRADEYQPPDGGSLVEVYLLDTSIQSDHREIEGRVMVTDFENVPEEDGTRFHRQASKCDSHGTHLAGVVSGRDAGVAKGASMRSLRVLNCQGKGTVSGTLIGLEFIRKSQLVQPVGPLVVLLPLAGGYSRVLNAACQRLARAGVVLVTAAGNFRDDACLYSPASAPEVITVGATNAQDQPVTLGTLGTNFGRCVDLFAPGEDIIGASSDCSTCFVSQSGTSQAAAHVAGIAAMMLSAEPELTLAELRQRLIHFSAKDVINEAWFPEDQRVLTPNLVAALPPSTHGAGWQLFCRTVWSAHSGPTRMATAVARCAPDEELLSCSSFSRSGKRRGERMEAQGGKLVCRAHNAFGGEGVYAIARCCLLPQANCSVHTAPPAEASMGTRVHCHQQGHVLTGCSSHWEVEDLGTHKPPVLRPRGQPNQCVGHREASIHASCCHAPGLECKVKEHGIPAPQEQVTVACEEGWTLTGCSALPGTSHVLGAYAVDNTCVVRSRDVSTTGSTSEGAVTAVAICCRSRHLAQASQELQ
T2 sequence (Q8NBP7 31-152 partner limits assumed): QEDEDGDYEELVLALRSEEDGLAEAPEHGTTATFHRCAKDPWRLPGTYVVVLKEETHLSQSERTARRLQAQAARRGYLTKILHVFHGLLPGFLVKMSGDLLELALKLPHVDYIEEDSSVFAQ
The target in test [2] is T2, PCSK9. Description: PCSK9/LDLR-Fc TR-FRET assay (LDLR assay). The test is classed as binding. Particulars: for IC50: Table 11, LDLR-Fc, average ±S.D. of three experiments. As for the experimental part:
In black 1536-well assay plates (MaKO, Aurora® Microplates, Whitefish, Mont.), 40 nL of peptide in DMSO were preincubated with 2 μL His-tagged PCSK9 plus anti-His-allophycocyanin in assay buffer (50 mM Tris-HCl, pH 7.5, 150 mM NaCl, 2 mM CaCl2, 0.01% Tween®-20, 0.1% bovine gamma globulins, and protease inhibitor cocktail) for 30 min. Then 2 μL of Fc-tagged ligand and anti-Fc-europium in assay buffer were added and allowed to incubate for 2 h. The PCSK9 and ligand conditions for each assay are as follows: 10 nM C-terminal (His)8-tagged PCSK9 (“(His)8” disclosed as SEQ ID NO: 304) and 12 nM EGF(A)-Fc for the EGF(A) assay, 10 nM C-terminal (His)8-tagged PCSK9 (“(His)8” disclosed as SEQ ID NO: 304) and 2.5 nM LDLR-Fc for the LDLR assay, 1.25 nM C-terminal (His)8-tagged PCSK9Δhelix (“(His)8” disclosed as SEQ ID NO: 304) and 0.75 nM Ab20 for the Ab20 assay, and 2 nM His-EGF(A)-Fc alone for the counterscreen. In all assays, anti-His-allophycocyanin and anti-Fc-europium were used at 20 nM and 2 nM, respectively. Fluorescence was measured with excitation at 340 nm and emission at 671 nm and 618 nm. The TR-FRET ratio was calculated as fluorescence at 671 nm/fluorescence at 618 nm. The ratios were normalized to controls and plotted against peptide concentration to determine IC50 values (Screener Analyzer, Genedata, Basel, CH). The peptides were evaluated in three separate experiments per assay with 10-point titrations and n=2 per concentration. The values presented are the average ±S.D. of three independent experiments.

The target in test [3] is T2, PCSK9. Briefly: Cell surface LDLR assay with HepG2 cells. In kind it is cell-based. The method, then:
HepG2 cells (ATCC; Manassas, Va.) were seeded into 48 well plates (Corning; Corning, N.Y.) at 1×10^5 cells per well in high glucose medium (DMEM, Gibco; Carlsbad, Calif.) containing 2 mM glutamine (Sigma), penicillin/streptomycin (Gibco) and 10% FBS (Sigma; St. Louis, Mo.) and incubated overnight. Then the medium was changed to DMEM containing 10% lipoprotein deficient serum (LPDS, Sigma). After 24 h, 15 μg/mL PCSK9 was incubated with peptides or Fab33 for 30 min, added to the cells and incubated at 37° C. for 4 h. Cells were rinsed with PBS and detached using Cell Dissociation Buffer in PBS (Gibco). After centrifugation, the resuspended cells were incubated with 1:20 anti LDLR antibody (Progen Biotechnik; Heidelberg, Germany) on ice for 10 min. The samples were then washed with PBS and incubated with 1:200 diluted goat anti mouse IgG (H+L) Alexa Fluor 488 (Invitrogen; Carlsbad, Calif.) on ice for 5 min. After two PBS washes, cells were re suspended in PBS containing 2.5 μg/mL of propidium iodide and analyzed on a dual laser flow cytometer (FACScan, Becton Dickinson; Franklin Lakes, N.J.). Relative fluorescence units (RFUs) were used to quantify LDLR expression levels on the HepG2 cell surface. Cell surface LDLR levels were expressed as percent of LDLR levels measured in the absence of PCSK9 (=control).
The effect of Compound 229 on PCSK9-mediated LDL receptor degradation was measured in a HepG2 cell assay as previously described (Zhang et al., J Biol Chem. 2014 Jan. 10; 289(2):942-55). Peptides at various concentrations were preincubated with 15 μg/mL PCSK9 in the presence of 0.5% DMSO for 30 min prior to the addition to cells. After a 4 h incubation, the cells were processed for measurements of LDL receptor surface levels by flow cytometry as described (Zhang et al., J Biol Chem. 2014 Jan. 10; 289(2):942-55) (FIG. 37).

For test [4], the target named is T2, PCSK9. Briefly: SPR affinity measurements of peptide binding (Example 8). The conditions noted are these: Example 8, with standard error; read-out: KD, binding affinity to PCSK9 in SPR experiments. As for the experimental part:
A Biacore™ T100 or Biacore™ 8K was adjusted to 20° C. The system was primed into assay buffer which consisted of 25 mM HEPES, pH 7.5, 0.15 M NaCl, 0.005% (v/v) Tween® 20, 0.2 mM tris(2-carboxyethyl)phosphine and optionally contained 0.1% (w/v) carboxymethylated dextran (average MW 10 kDa) and 0.2% (w/v) PEG (average MW 3450 Da) in order to reduce potential non-specific binding. Peptides were assayed by capturing fresh PCSK9 or PCSK9Δhelix after each binding regeneration cycle by exploiting a histidine tag and an NTA-sensor chip. The surface was charged with (His)8-tagged PCSK9 (approximately 800 RU captured). […] Compound 19 and Compound 20 were assayed in six serial two-fold dilutions from 100 nM to 3.1 nM. All peptides were analyzed in duplicate by serial injection (50 μL/min for 1 min) of peptide dilution from low to high concentration. The surface was then stripped of target by injecting 0.5 M EDTA, pH 8.0. This sequence was repeated for each peptide binding cycle and blank control cycles.
All SPR data was recorded in duplicate for five, or more serial dilutions, except for the two fusion peptides, which produced extremely low fitting error. Multicycle data (i.e. separate curves for each concentration) and single cycle data (i.e. single curve with serial injection of each concentration) were double referenced and fitted to an interaction model using BIAevaluation software. Peptide binding to PCSK9 produced deviations from a simple 1:1 binding interaction model that required application of a two-state model for determination of Kd while interactions with PCSK9Δhelix conformed well to simple 1:1 binding. Kinetic curvature was poorly defined for rapidly dissociating peptides and in these cases Kd was estimated from a steady-state dose response plot. Kd values were reported with associated standard error, a measure of confidence in that parameter value.

The subject of another test is His-EGF(A)-Fc. Briefly: His-EGF(A)-Fc TR-FRET counterscreen. The conditions noted are these: for IC50: TR-FRET counterscreen, Table 8E, additional compounds.
Another test deals with T3, LDLR ectodomain (Homo sapiens, UniProt P01130).
T3 construct: purchased R & D Systems
T3 sequence (P01130 22-788 limits assumed): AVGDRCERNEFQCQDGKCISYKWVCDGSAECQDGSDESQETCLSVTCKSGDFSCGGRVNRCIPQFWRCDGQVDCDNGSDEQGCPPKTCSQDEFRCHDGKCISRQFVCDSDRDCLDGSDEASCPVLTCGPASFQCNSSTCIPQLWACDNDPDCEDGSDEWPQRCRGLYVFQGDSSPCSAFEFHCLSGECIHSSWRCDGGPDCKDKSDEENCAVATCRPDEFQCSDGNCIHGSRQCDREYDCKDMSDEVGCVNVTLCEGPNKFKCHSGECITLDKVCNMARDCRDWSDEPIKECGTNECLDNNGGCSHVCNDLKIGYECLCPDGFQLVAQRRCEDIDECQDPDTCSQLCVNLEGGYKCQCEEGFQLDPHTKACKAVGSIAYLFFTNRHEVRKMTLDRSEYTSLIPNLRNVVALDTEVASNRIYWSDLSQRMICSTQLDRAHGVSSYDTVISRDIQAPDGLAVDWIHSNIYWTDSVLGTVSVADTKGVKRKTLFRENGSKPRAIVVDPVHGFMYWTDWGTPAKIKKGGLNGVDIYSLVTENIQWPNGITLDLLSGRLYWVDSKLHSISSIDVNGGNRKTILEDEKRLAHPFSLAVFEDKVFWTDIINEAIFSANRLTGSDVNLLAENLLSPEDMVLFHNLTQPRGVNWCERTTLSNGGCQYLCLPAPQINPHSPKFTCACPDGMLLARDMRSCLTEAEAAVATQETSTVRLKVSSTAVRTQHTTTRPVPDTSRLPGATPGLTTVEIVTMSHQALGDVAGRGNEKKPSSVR
Briefly: Biolayer interferometry binding of PCSK9 mutants to LDLR ectodomain. An excerpt: In further experiments the previously described PCSK9 mutant PCSK9-R215A:R218A (=PCSK9-AA) (Lipari et al. J Biol Chem. 2012 Dec. 21; 287(52):43482-91), in which the “furin cleavage loop” residues had been changed to Alanine, was used in order to prevent protease cleavage at the susceptible residues R215 and R218. […] Therefore, to direct the FXIa cleavage specifically to the P′ alpha helix residue R160 the triple mutant PCSK9-R167A:R215A:R218A (=PCSK9-AAA) was produced. The binding affinities of PCSK9-AAA and PCSK9-AA to the LDLR ectodomain (R & D Systems) were determined by biolayer interferometry as described (Lipari et al. J Biol Chem. 2012 Dec. 21; 287(52):43482-91).
On the technique in general: Biolayer interferometry detects binding as a change in optical thickness at a sensor tip.

The mark [5] stands for this setting: TR-FRET, Table 8E, additional compounds, read-out: PCSK9Δhelix/Ab20 IC50.
Setting [6] is: Table 11, average ±S.D. of three experiments, read-out: Ab20 IC50.
The mark [7] stands for this setting: TR-FRET, Table 8E, additional compounds, read-out: PCSK9/EGF(A) IC50.
Setting [8] is: Table 11, average ±S.D. of three experiments, read-out: EGF(A) IC50.

Entries after “also recorded” stand apart in the source; their conditions may differ. Read-outs that look alike come from different tables or passages of the source. Square brackets hold non-standard residues; d marks the D form. Peptide text beside a SMILES is read from it. hArg = N=C(N)NCCCC[C@H](N)C(=O)O Some results are limits rather than exact numbers.

T1 sequence (Q8NBP7 with tags, fused parts or gaps limits assumed): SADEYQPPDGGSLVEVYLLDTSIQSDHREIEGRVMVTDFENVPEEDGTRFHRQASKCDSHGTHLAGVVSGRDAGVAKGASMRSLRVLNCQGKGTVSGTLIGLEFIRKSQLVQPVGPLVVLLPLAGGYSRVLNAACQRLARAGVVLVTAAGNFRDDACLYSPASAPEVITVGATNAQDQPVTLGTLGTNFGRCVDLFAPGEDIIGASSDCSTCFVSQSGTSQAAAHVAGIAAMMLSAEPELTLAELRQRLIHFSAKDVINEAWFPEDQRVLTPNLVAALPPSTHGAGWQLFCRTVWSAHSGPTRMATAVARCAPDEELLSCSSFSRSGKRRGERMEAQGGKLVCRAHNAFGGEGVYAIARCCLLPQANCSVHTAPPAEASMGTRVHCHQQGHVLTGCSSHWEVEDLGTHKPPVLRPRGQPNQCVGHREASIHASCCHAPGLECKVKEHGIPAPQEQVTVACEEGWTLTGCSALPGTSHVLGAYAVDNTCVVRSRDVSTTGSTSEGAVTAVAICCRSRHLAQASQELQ
T1 sequence (Q8NBP7 31-152 partner limits assumed): as the sequence (Q8NBP7 31-152 partner limits assumed) above

Take `CC[C@H](C)[C@H](NC(=O)[C@H](CCCCNC(=N)N)NC(=O)[C@@H](NC(=O)[C@H](CC(C)C)NC(=O)[C@H](CC(N)=O)NC(=O)[C@H](Cc1c[nH]c2ccccc12)NC(=O)CNC(=O)[C@@H]1CCCN1C(=O)[C@H](Cc1ccccc1)NC(=O)[C@H](CO)NC(=O)[C@H](CCC(=O)O)NC(=O)[C@H](CCSC)NC(C)=O)C(C)C)C(=O)NCC(=O)N[C@@H](CC(C)C)C(=O)N[C@@H](CC(C)C)C(=O)N[C@@H](CCCNC(=N)N)C(N)=O` [Compound 229] (Ac-MESFPGWNLV[hArg]IGLLR-NH2): the “inhibition in the PCSK9Δhelix/Ab20 binding assay” value at PCSK9Δhelix was “inhibition”. The IC50 at PCSK9Δhelix (setting [5]) is 8.1 µM; on PCSK9Δhelix (setting [6]) it was 0.84 ± 0.08 µM; at PCSK9 [1] (setting [7]), 0.81 µM; on PCSK9 [1] (setting [8]), 8.3 ± 0.1 µM; against PCSK9 [2], 25 ± 0.8 µM; in the test with His-EGF(A)-Fc, at least 50 µM. Also, at PCSK9Δhelix (Table 11), the “improvement of affinity to PCSK9Δhelix versus Compound 192” value is reported as “more than 6 fold”. At PCSK9 [1], the “inhibition in the PCSK9/EGF(A) binding assay” value is given as “inhibited; also recorded: inhibition”. In addition, the “inhibition of LDLR-Fc binding to PCSK9” value at PCSK9 [2] is “inhibited; also recorded: inhibition”. Moreover, at PCSK9 [3], the “inhibition of PCSK9-mediated LDLR degradation in HepG2 cells” value is recorded as “concentration-dependent manner; also recorded: concentration-dependent inhibition”. Besides, the “surface LDLR levels restored” value at PCSK9 [3] (HepG2 cells, maximal restoration, percent of control without PCSK9) is reported as at most 70%. In addition, on PCSK9 [4], the Kd came out at 0.94 ± 0.01 µM. Further, the “response in the His-EGF(A)-Fc counterscreen” value in the test with His-EGF(A)-Fc is on record as “without interference”.
Turning to `CC[C@H](C)[C@H](NC(=O)[C@H](CCCCNC(=N)N)NC(=O)[C@@H](NC(=O)[C@H](CC(C)C)NC(=O)[C@H](CC(N)=O)NC(=O)[C@H](Cc1c[nH]c2ccccc12)NC(=O)CNC(=O)[C@@H]1CCCN1C(=O)[C@H](Cc1ccccc1)NC(=O)[C@H](C)NC(=O)[C@H](Cc1ccccc1)NC(=O)[C@H](CO)NC(C)=O)C(C)C)C(=O)NCC(=O)N[C@@H](CC(C)C)C(=O)N[C@@H](CC(C)C)C(=O)N[C@@H](CCCNC(=N)N)C(N)=O` [Compound 228] (Ac-SFAFPGWNLV[hArg]IGLLR-NH2), the IC50 at PCSK9Δhelix (setting [5]) was 13 µM; at PCSK9Δhelix (setting [6]), 1.37 ± 0.12 µM; at PCSK9 [1] (setting [7]), 1.3 µM; on PCSK9 [1] (setting [8]) it was 13.2 ± 0.8 µM; against PCSK9 [2] it was 30.4 ± 1.1 µM; in the test on His-EGF(A)-Fc it was at least 50 µM. For the same molecule, the “inhibition in the PCSK9/EGF(A) binding assay” value at PCSK9 [1] is on record as “inhibited”. The “inhibition of LDLR-Fc binding to PCSK9” value at PCSK9 [2] is “inhibited”. For the same molecule, the Kd at PCSK9 [4] is 2.8 ± 0.05 µM.

B1: PCSK9-AAA: triple mutant PCSK9-R167A:R215A:R218A (protein, UniProt Q8NBP7 153-692, looked up, variant R167A R215A R218A)
Proprotein convertase …: SIPWNLERITPPRYAADEYQPPDGGSLVEVYLLDTSIQSDHREIEGRVMVTDFENVPEEDGTAFHAQASKCDSHGTHLAGVVSGRDAGVAKGASMRSLRVLNCQGKGTVSGTLIGLEFIRKSQLVQPVGPLVVLLPLAGGYSRVLNAACQRLARAGVVLVTAAGNFRDDACLYSPASAPEVITVGATNAQDQPVTLGTLGTNFGRCVDLFAPGEDIIGASSDCSTCFVSQSGTSQAAAHVAGIAAMMLSAEPELTLAELRQRLIHFSAKDVINEAWFPEDQRVLTPNLVAALPPSTHGAGWQLFCRTVWSAHSGPTRMATAVARCAPDEELLSCSSFSRSGKRRGERMEAQGGKLVCRAHNAFGGEGVYAIARCCLLPQANCSVHTAPPAEASMGTRVHCHQQGHVLTGCSSHWEVEDLGTHKPPVLRPRGQPNQCVGHREASIHASCCHAPGLECKVKEHGIPAPQEQVTVACEEGWTLTGCSALPGTSHVLGAYAVDNTCVVRSRDVSTTGSTSEGAVTAVAICCRSRHLAQASQELQ
In the test with LDLR ectodomain, B1 came in with an equilibrium dissociation constant (Kd) of 0.214 µM.
